Results published in the METLIN SMRT retention time set (Domingo-Almenara et al. 2019).

Test: gradient 5% acetonitrile 3 min, to 50% in 2 min, to 85% in 15 min, held 3 min, 100 µL/min
Details: column: Zorbax Extend-C18 2.1 x 50 mm; eluents: water / acetonitrile, 0.1% formic acid
How it was run: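 Retention time was recorded from adduct peaks, which were picked computationally and each inspected manually. Pure standards ran in mixtures of ~100 molecules on HPLC coupled to a quadrupole time-of-flight mass spectrometer, in positive and negative ionization mode, through a Zorbax Extend-C18 column (2.1 × 50 mm, 1.8 μm) at 100 μL/min. Eluents were water and acetonitrile, each with 0.1% formic acid.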

| SMILES | RP-LC retention time [s] |
| --- | --- |
| CCCS(=O)(=O)N1CCC(F)(c2nc(-c3ccccc3)no2)CC1 | 1080 |
| COc1ccc(N2C=C(C(=O)N3CCCC3)S(=O)(=O)c3ccc(F)cc32)cc1Cl | 838 |
| c1ccc(-c2csc(Nc3ncccn3)n2)nc1 | 594 |
| CCOc1cc(CNC(=O)C2=Cc3cc(OC)ccc3OC2)ccc1OC | 873 |
| Clc1ccccc1-c1csc(Nc2ccccn2)n1 | 960 |
| CCS(=O)(=O)NCC(c1cccnc1)N1CCN(c2ccccc2F)CC1 (stereo unspecified) | 561 |
| Cc1cnc2c(N)cc(C)c(C)c2c1 | 715 |
| CCNC(=O)c1cnn(-c2ccc(-c3nc(C(C)C)no3)cn2)c1C | 983 |
| CCCN1CCN(CCCNC(=O)C2CCN(Cc3cn(C)c4ccc(Cl)cc34)CC2)CC1 | 541 |
| Cc1noc(-c2ccc(NC(=O)c3cc(=O)c4ccccc4o3)cc2)n1 | 790 |
| CCCC(NC(=O)c1ccc(C)cc1)C(=O)Nc1nc2ccccc2[nH]1 (stereo unspecified) | 716 |
| CN1CCC(N2CCN(S(=O)(=O)c3ccc(F)cc3)CC2)C1=O (stereo unspecified) | 552 |
| Cc1[nH]c(/C=C2\C(=O)Nc3ccccc32)c(C)c1CCC(=O)O | 820 |
| CCc1cccc(C)c1Nc1c(-c2ccc(SC)cc2)nc2nc(C)cc(C)n12 | 867 |
| O=C(NCC1CC1)c1cn(C2CN(C(=O)Nc3ccc4c(c3)OCCO4)C2)nn1 | 685 |
| COc1ccc2c(c1)C1(CCN(C(=O)NC(C)(C)C)C1)C(=O)N2C (stereo unspecified) | 753 |
| O=C(NCC1CCCO1)c1nnn(-c2ccccc2Cl)c1-c1ccncc1 (stereo unspecified) | 693 |
| O=C(c1ccccc1F)N1CCC2(CC1)N=C(c1ccc(Cl)cc1)NO2 | 876 |
| CCOc1ccc(-c2noc(CN3N=NC4C(=O)N(c5cccc(SC)c5)C(=O)C43)n2)cc1OC (stereo unspecified) | 984 |
| COCCn1cc(CCNC(=O)Nc2ccc(F)cc2F)c2cccnc21 | 729 |
| CC(NC(=O)Nc1ccccc1C(F)(F)F)C(=O)N1CCc2ccccc21 (stereo unspecified) | 907 |
| COc1ccc(S(=O)(=O)N2CCN(c3cnn4c(C)nnc4c3)CC2)cc1 | 670 |
| CC1CCN(C(=O)C2N(C(C)C)C(=O)C23CCCC3)CC1 (stereo unspecified) | 737 |
| CCc1ccc(-c2nc3ccc(C)cn3c2CN2CCC(F)(COC)CC2)cc1 | 642 |

| SMILES | RP-LC retention time [s] |
| --- | --- |
| COCCN(CC(=O)N1CCc2sccc2C1COc1cccc(F)c1)C(=O)CC(C)C (stereo unspecified) | 976 |
| Cc1ccc(Nc2nc(C)cc(N3CCN(S(=O)(=O)c4c(C)cc(C)cc4C)CC3)n2)cc1 | 917 |
| CCCc1noc(-c2nc(-c3ccc(OC)c(OC)c3)no2)n1 | 1050 |
| CCn1c(=O)c2ccccc2n(Cc2nc(-c3ccccc3)no2)c1=O | 991 |
| COc1c(C)cc(S(=O)(=O)NC2CC(C)(C)NC(C)(C)C2)cc1C | 575 |
| O=C(NCc1ccccc1)C1CCCN(C(=O)C2Sc3ccccc3NC2=O)C1 (stereo unspecified) | 746 |
| CCOc1ccc(C(=O)N2CCCC2c2nc(-c3ccc(OC)cc3)no2)cc1 (stereo unspecified) | 886 |
| COc1ccc(C2CC(=O)c3cnc(N4CCN(c5ccccn5)CC4)nc3C2)c(OC)c1 (stereo unspecified) | 713 |
| COc1ccc(S(=O)(=O)N2CCc3nc(-c4ccc(F)cc4)ncc3C2)cc1 | 1050 |
| O=C(NCC1(CO)CC1)c1cc(-c2ccccc2)on1 | 703 |
| CCN1CCn2cc(S(=O)(=O)Nc3ccc(OC)cc3)cc2C1=O | 684 |
| CCCn1c(=O)sc2cc(S(=O)(=O)N3CCC(C(=O)N4CCCCC4)CC3)ccc21 | 876 |
| CCn1cc(-c2nc(C)c(C(=O)NCc3ccc(F)cc3)s2)c2cccnc21 | 902 |
| CCCN1CCN(c2ncc3c(n2)CCN(Cc2ccc(CC)cc2)C3)CC1 | 496 |
| Cn1c(=O)c2c(nc(N3CCOCC3)n2C)n(C)c1=O | 663 |
| COc1ccc(-c2nc(Cn3ccn4nc(-c5ccc(F)cc5)cc4c3=O)c(C)o2)cc1 | 670 |
| Cn1c(=O)oc2cc(-c3noc(/C=C/c4ccccc4)n3)ccc21 | 1060 |
| COc1ccc(-c2nc3ncccn3c2Nc2cc(C)ccc2C)cc1 | 792 |
| c1ccc(-c2n[nH]c(CC3CCNC3)n2)cc1 (stereo unspecified) | 570 |
| Nc1cc(C2CCN(S(=O)(=O)c3cccc(Cl)c3)CC2)no1 | 792 |
| CC1CCCCN1Cc1nc(-c2ccc(N3CCSCC3)nc2)no1 (stereo unspecified) | 642 |
| COc1ccc(CN(C)Cc2cc(=O)c3cc(C)ccc3[nH]2)cc1OC | 588 |
| O=C(Nc1ccc(Br)cc1F)c1ccc(-n2ccnc2)nn1 | 693 |

Second part, the molecule after the results:

| RP-LC retention time [s] | SMILES |
| --- | --- |
| 914 | Cc1ccc(-n2nc(N3CCCN(S(=O)(=O)c4ccccc4F)CC3)ccc2=O)cc1C |
| 680 | Cc1cc(N2CCN(C(=O)Nc3cccc(F)c3)CC2)nc(N2CCCC2)n1 |
| 867 | Cc1ccc(-n2cc3c(c(C(=O)NC4CC4)c2=O)CC(C)(C)CC3=O)cc1 |
| 558 | Cc1nn(C2CCS(=O)(=O)C2)c(C)c1N1CCN(CC(=O)Nc2ccccc2F)CC1 (stereo unspecified) |
| 681 | CNC(=O)N1CCCN(C2=NS(=O)(=O)C(c3ccc(F)cc3)=C2C)CC1 |
| 919 | CC1(C(=O)NC2CCCCCCC2)CN(S(C)(=O)=O)CC(=O)N1c1cccc(F)c1 (stereo unspecified) |
| 1050 | Cc1cc(C)c2c(-n3cccc3)nn(CC(=O)NC3CCCCCC3)c2n1 |
| 798 | O=C(NCCCn1nc(-c2ccc(Cl)cc2)ccc1=O)C1CCCC1 |
| 615 | CCn1cc(S(=O)(=O)N2CCCCC2c2nc(-c3cccnc3)n[nH]2)cn1 (stereo unspecified) |
| 900 | Cc1ccc2c(c1)N(S(C)(=O)=O)CCC(C(=O)NCc1ccccc1C)O2 (stereo unspecified) |
| 871 | CCOC(=O)N1CCC2(CC1)N=C(c1ccc(Cl)cc1)CC(c1cccc(OCC)c1O)N2 (stereo unspecified) |
| 741 | CC(C)c1c(C2CCN(C(=O)NCc3ccccc3)CC2)noc1N |
| 682 | O=c1c(NC2CCCC2)nc2ccncc2n1Cc1ccccc1 |
| 803 | CCCNC(=O)CN1C(=O)CCCc2cc(S(=O)(=O)N3CCCCCC3)ccc21 |
| 947 | Cc1c(C(=O)NC2CC2)cnn1-c1ccc(-c2nc(C(C)(C)C)no2)cn1 |
| 617 | c1cn(-c2cc(NC3CCCCC3)ncn2)cn1 |
| 738 | Cc1cc(C)n(-c2ccc(C(=O)Nc3ccc(O)cc3)cn2)n1 |
| 608 | Cc1ccc(C)c(NC(=O)N2CCN(CCn3c(-c4ccncc4)nc4cccnc43)CC2)c1 |
| 899 | CCn1cc(-c2nc(C(=O)Nc3cc(F)ccc3C)cs2)c2cccnc21 |
| 844 | Cc1cccnc1NC(=O)C1CCN(S(=O)(=O)c2ccc3c(c2)sc(=O)n3C(C)C)CC1 |
| 573 | Cc1occc1C(=O)N1CCCn2ccnc2C1c1cnn(C)c1 (stereo unspecified) |
| 808 | CCOC(=O)c1c(C)[nH]c(C(=O)N2CCCC(C(=O)NCc3cccc(F)c3)C2)c1C (stereo unspecified) |

| RP-LC retention time [s] | SMILES |
| --- | --- |
| 794 | CCc1cccc(NC(=O)C2CCCN(c3cc(=O)n(C)c(=O)n3C)C2)c1 (stereo unspecified) |
| 942 | O=C(CN1C(=O)CCCc2cc(S(=O)(=O)N3CCCCC3)ccc21)NC1CCCCCC1 |
| 731 | CCc1ccccc1NC(=O)N1CC(c2nc(C)no2)C2(CCOCC2)C1 (stereo unspecified) |
| 897 | O=C(Cn1cccc1-c1nnc(C2CCC2)o1)Nc1ccc(F)cc1 |
| 718 | Cc1cc(=O)n(CC(=O)NCc2ccc3c(c2)OCO3)c(N2CCc3ccccc3C2)n1 |
| 642 | O=C(c1nc(C2CC2)nc2c1OCCO2)N1CCCC1c1cccnc1 (stereo unspecified) |
| 588 | O=C(NCc1ccccn1)C1CCN(c2nc3cccnc3s2)CC1 |
| 763 | Cn1c(=O)c2c(ncn2CC(=O)N2CCCn3nc(-c4ccc(C(F)(F)F)cc4)cc3C2)n(C)c1=O |
| 683 | O=C(NCc1ccco1)C1CCN(c2nc3cccnc3s2)CC1 |
| 1020 | Cc1cccc(Oc2nccnc2N2CCC(C(=O)NC(C)c3ccccc3)CC2)c1 (stereo unspecified) |
| 685 | Cc1cccc(OCC(O)Cn2c(C3CC3)nc3ccccc32)c1 (stereo unspecified) |
| 704 | Cc1ccc(S(=O)(=O)N2CCC(n3cnnc3C)CC2)cc1C |
| 588 | COCCNC(=O)C1CCN(c2cncnc2N2CCCCC2)CC1 |
| 1020 | Cc1nc(C)c(C(=O)N2CCc3cc(-c4csc(C5CC5)n4)ccc32)s1 |
| 673 | Cc1cc(-c2nnc(-c3ccc(F)cc3)o2)c(C)n1CC(=O)NCc1ccccn1 |
| 882 | O=c1n(Cc2cccc(Cl)c2)nc2c(S(=O)(=O)N3CCCC3)cccn12 |
| 664 | Cc1ccc(C)c(NC(=O)NCCn2nnc3cc(C(=O)N(C)C)ccc32)c1 |
| 808 | Cc1c(F)cccc1NC(=O)C1CCc2nc(N3CCOCC3)ncc2C1 (stereo unspecified) |
| 862 | COc1cc(OC)c(NC(=O)C2CCCN(c3ncnc4c3nc3n4CCCCC3)C2)cc1Cl (stereo unspecified) |
| 861 | Cc1ccc(C(=O)N2CCCC(c3nnc(-c4ccccc4)o3)C2)s1 (stereo unspecified) |
| 769 | Cc1cccc(CCNC(=O)C2CCN(S(=O)(=O)N3CCOCC3)CC2)c1 |
| 598 | Cc1ccc(NC(=O)N2CCc3nc(CNC(=O)C4CCC4)n(C)c3C2)cc1 |
